Data published in PubChem BioAssay AID2060485 (Molecular Pharmacology Branch, DTP, NCI, 2025).

System: A375 multi-cell spheroids with HUVEC/MSC, viability
Assay: Anticancer human tumor A375 cell line growth inhibition [GQUAD];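 also: spheroids exposed to compounds for seven days before readout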
Conditions: for IC50: curve of first compound; for viability, T/C: stronger effect = lower value; active = viability on the fitted dose curve at most 10% of control; inactive = the rest
Text: DNA G-quadruplex Stabilizer Agents in Combinations in Complex Spheroids
A high-throughput screen of multi-cell type tumor spheroids was designed to identify active combinations of DNA G-quadruplex stabilizer agents and targeted small molecules. Complex spheroids include a stromal component modeled by human endothelial cells (HUVEC) and fibroblasts modeled by human mesenchymal stem cells (MSCs). The concentration ranges selected for each drug and investigational agent were based upon clinically achievable concentrations if the clinical Cmax of the agent was known.
Compounds. The drugs and investigational agents: pidnarulex (CX-5461; NSC782164), APTO-253 (NSC789042), BRACO-19 (NSC847499), peposertib (NSC802822), ceralasertib (NSC780249), elimusertib (NSC800525), camonsertib (NSC841442), AZD-1390 (NSC803789), olaparib (NSC753686), talazoparib (NSC767125), ART-558 (NSC835418), sotorasib (NSC818433), MRTX-1133 (NSC836407), SN-38 (NSC673596), topotecan (NSC609699), etoposide (NSC141540), doxorubicin (NSC123127), gemcitabine (NSC613327), 5-fluorouracil (NSC19893), paclitaxel (NSC125973), vemurafenib (NSC761431), panobinostat (NSC761190), R-306465 (JNJ-16241199; NSC773264), adavosertib (NSC754352), TP-3654 (NSC805149), carboplatin (NSC241240), KSQ-4279 (NSC840948), and staurosporine (NSC755774) were obtained from the National Cancer Institute (NCI) Developmental Therapeutics Program Chemical Repository (34). The FDA-approved anticancer drug set is available from the NCI Developmental Therapeutics Program. […] The stock solutions were prepared in dimethyl sulfoxide (DMSO, Sigma-Aldrich, St. Louis, MO, cat. D2650) at 800-fold the tested concentration and stored at -70 degrees C prior to their use. All drugs and investigational agents were tested over a range starting from a high concentration at or near the clinical Cmax and decreasing in half-log increments. If the clinical Cmax for an agent had not been determined, the highest concentration tested was 10 microM.
2.3 Cell Culture. All cells were maintained in an incubator at 37 degrees C and 5% CO2 with 95% humidity. The PDC lines were cultured according to standard operating procedures established by the NCI PDMR. All PDCs were thawed and cultured in Matrigel-coated flasks prepared with a working solution of 1X Ham's F-12 nutrient mix, without supplementation (Invitrogen, cat. 11765054), 100 U/mL penicillin-streptomycin (Invitrogen, cat. 15140122), and 2.5% Matrigel (Corning Inc., cat. 354248) for the first three passages. The 857933-349-R-J2-PDC line was cultured in 6C/Colon 1B media, which includes advanced DMEM/F-12 (Thermo Fisher Scientific, cat. 12634028), 10 mM HEPES (Thermo Fisher Scientific, cat. 15630080), 1X GlutaMAX supplement (Thermo Fisher Scientific, cat. 35050061), 0.1 mg/mL primocin (InvivoGen, cat. ant-pm-2), 10% defined fetal bovine serum, heat inactivated (HyClone Laboratories Inc., cat. SH30070.03HI), 50% L-WRN conditioned media (ATCC, cat. CRL-3276), 1.25 mM N-Acetyl-L-cysteine (Sigma-Aldrich, cat. A9165), 10 mM nicotinamide (Sigma-Aldrich, cat. N0636), 1X B-27 supplement (Thermo Fisher Scientific, cat. 17504044), 1X N-2 supplement (Thermo Fisher Scientific, cat. 17502048), 10 microM Y-27632 dihydrochloride (Tocris Bioscience, cat. 1254), and 50 ng/mL human EGF recombinant protein (Thermo Fisher Scientific, cat. PHG0311). The 485176-168-R4-J1-PDC line was cultured in Panc media, which includes all 6C/Colon 1B media components plus 100 ng/mL human FGF-10 (Thermo Fisher Scientific, cat. 100-26), 500 nM SB-431542 (Selleckchem, cat. S1067), and gastrin (Tocris, cat. 3006).
[…]

[1] = second compound 0.0316 µM, first compound 0.0316 µM
[2] = second compound 0.0316 µM, first compound 0.1 µM
[3] = second compound 0.0316 µM, first compound 0.316 µM
[4] = second compound 0.0316 µM, first compound 1 µM
[5] = second compound 0.0316 µM, first compound 3.16 µM
[6] = second compound 0.0316 µM, first compound 10 µM
[7] = second compound 0.1 µM, first compound 0.0316 µM
[8] = second compound 0.1 µM, first compound 0.1 µM
[9] = second compound 0.1 µM, first compound 0.316 µM
[10] = second compound 0.1 µM, first compound 1 µM
[11] = second compound 0.1 µM, first compound 3.16 µM
[12] = second compound 0.1 µM, first compound 10 µM
[13] = second compound 0.316 µM, first compound 0.0316 µM
[14] = second compound 0.316 µM, first compound 0.1 µM
[15] = second compound 0.316 µM, first compound 0.316 µM
[16] = second compound 0.316 µM, first compound 1 µM
[17] = second compound 0.316 µM, first compound 3.16 µM
[18] = second compound 0.316 µM, first compound 10 µM
[19] = second compound 1 µM, first compound 0.0316 µM
[20] = second compound 1 µM, first compound 0.1 µM
[21] = second compound 1 µM, first compound 0.316 µM
[22] = second compound 1 µM, first compound 1 µM
[23] = second compound 1 µM, first compound 3.16 µM
[24] = second compound 1 µM, first compound 10 µM
[25] = second compound 3.16 µM, first compound 0.0316 µM
[26] = second compound 3.16 µM, first compound 0.1 µM
[27] = second compound 3.16 µM, first compound 0.316 µM
[28] = second compound 3.16 µM, first compound 1 µM
[29] = second compound 3.16 µM, first compound 3.16 µM
[30] = second compound 3.16 µM, first compound 10 µM
[31] = second compound 10 µM, first compound 0.0316 µM
[32] = second compound 10 µM, first compound 0.1 µM
[33] = second compound 10 µM, first compound 0.316 µM
[34] = second compound 10 µM, first compound 1 µM
[35] = second compound 10 µM, first compound 3.16 µM
[36] = second compound 10 µM, first compound 10 µM

CC1COCCN1c1cc(-c2ccnn2C)c2ccnc(-c3ccn[nH]3)c2n1 (centres undefined) + CN(C)c1ccc(Nc2c3ccc(NC(=O)CCN4CCCC4)cc3nc3cc(NC(=O)CCN4CCCC4)ccc23)cc1
0.344 µM: IC50 (second compound 0.316 µM)
inactive: viability, T/C [1] 105% | viability, T/C [2] 78.3% | viability, T/C [3] 50.8% | viability, T/C [4] 25.8% | viability, T/C [5] 10% | viability, T/C [7] 114% | viability, T/C [8] 82% | viability, T/C [9] 48.8% | viability, T/C [10] 26.6% | viability, T/C [11] 10.1% | viability, T/C [13] 111% | viability, T/C [14] 82.6% | viability, T/C [15] 53.6% | viability, T/C [16] 26.7% | viability, T/C [17] 11.1% | viability, T/C [19] 108% | viability, T/C [20] 82.9% | viability, T/C [21] 51.4% | viability, T/C [22] 27.5% | viability, T/C [23] 11.2% | viability, T/C [25] 110% | viability, T/C [26] 83.9% | viability, T/C [27] 48.9% | viability, T/C [28] 28.2% | viability, T/C [29] 10.8% | viability, T/C [31] 97.7% | viability, T/C [32] 74.2% | viability, T/C [33] 47.3% | viability, T/C [34] 27.6% | viability, T/C [35] 11.1%
0.339 µM: IC50 (second compound 1 µM)
0.303 µM: IC50 (second compound 0.1 µM)
active: viability, T/C [6] 9.41% | viability, T/C [12] 9.57% | viability, T/C [18] 9.6% | viability, T/C [24] 8.68% | viability, T/C [30] 10.2% | viability, T/C [36] 9.62%
0.319 µM: IC50 (second compound 3.16 µM)
0.308 µM: IC50 (second compound 0.0316 µM)
0.283 µM: IC50 (second compound 10 µM)

CCCS(=O)(=O)Nc1ccc(F)c(C(=O)c2c[nH]c3ncc(-c4ccc(Cl)cc4)cc23)c1F + CN(C)c1ccc(Nc2c3ccc(NC(=O)CCN4CCCC4)cc3nc3cc(NC(=O)CCN4CCCC4)ccc23)cc1
active: viability, T/C [3] 8.13% | viability, T/C [4] 6.52% | viability, T/C [5] 4.92% | viability, T/C [6] 5.69% | viability, T/C [9] 7.72% | viability, T/C [10] 6.32% | viability, T/C [11] 5.28% | viability, T/C [12] 5.54% | viability, T/C [15] 8.27% | viability, T/C [16] 6.77% | viability, T/C [17] 4.48% | viability, T/C [18] 4.46% | viability, T/C [21] 7.95% | viability, T/C [22] 6.06% | viability, T/C [23] 4.78% | viability, T/C [24] 2.9% | viability, T/C [27] 6.95% | viability, T/C [28] 5.84% | viability, T/C [29] 4.55% | viability, T/C [30] 0.61% | viability, T/C [33] 7% | viability, T/C [34] 5.45% | viability, T/C [35] 4.34% | viability, T/C [36] 0.17%
inactive: viability, T/C [1] 40.3% | viability, T/C [2] 14.1% | viability, T/C [7] 45% | viability, T/C [8] 14.1% | viability, T/C [13] 39.4% | viability, T/C [14] 14.7% | viability, T/C [19] 34.9% | viability, T/C [20] 15% | viability, T/C [25] 36.5% | viability, T/C [26] 14.8% | viability, T/C [31] 36.9% | viability, T/C [32] 12.4%
< 0.0316 µM: IC50 (second compound 0.0316 µM) | IC50 (second compound 0.1 µM) | IC50 (second compound 0.316 µM) | IC50 (second compound 1 µM) | IC50 (second compound 3.16 µM) | IC50 (second compound 10 µM)
